Consider 63 compounds from a melting point compilation (Tetko et al.; mined from patent text by program, amines drawn as free bases though some values may be those of a salt).

What is called melting point is the temperature of the solid-liquid transition. For `CCCCOC(=O)c1c(CBr)nc2cc(OC)c(OC)cc2c1-c1ccc(OC)c(OC)c1`, the melting point was 160 to 161 °C. The compound `COc1ccc(-c2c(C)c(NC(=O)CC(C)(C)C)c(C)c3c2OCC3c2ccc(C(C)C)cc2)cn1` (stereo not drawn) came in with a melting point of 120 to 123 °C. For `COCc1cccc(OCCc2cnc(SC)[nH]c2=O)c1`, the melting point was 129 to 131 °C. In turn, `COc1ccc(CN2C(=O)C(O)(c3cc4c(C)noc4cc3O)c3ccccc32)cc1` (stereo not drawn) returned a melting point of 199 to 201 °C. The figure for `Cc1c(C(=O)Cl)ccc2c1C(=O)N(C)S2(=O)=O` is 149 to 150 °C; for `OC1c2cc(OCc3nc4cc(F)ccc4s3)ccc2OCC1Oc1ccccc1` (stereo not drawn) it is 144 to 145 °C.

`Cc1nc(N2CCN(Cc3ccc(F)cc3)C2=O)sc1C(=O)NCc1ccncc1` showed a melting point of 146 to 149 °C. The figure for `CCOC(=O)c1cc(C)c2c(c1)CC(=O)N2` is 238 to 241 °C; for `CC1C=C(Nc2ccc(OC(F)(F)F)cc2)N(C)N1` (stereo not drawn) it is 80 to 82 °C; for `COc1cc2c(cc1Nc1ncc(Cl)c(Nc3ccccc3C(=O)OC(C)C)n1)CCN(CCCN(C)C)C(=O)C2` it is 63 to 90 °C. As for `CCCS(=O)(=O)C(c1cnc(C(N)=O)cc1C)c1c(F)ccc(F)c1F` (stereo not drawn), the figure is 202 to 204 °C; as for `O=C1NCC(Cc2ccc(F)cc2)O1` (stereo not drawn), 120 to 121 °C; as for `CC1(C)C(C(=O)O)N2C(=O)C(NC(=O)COc3ccccc3)C2S1=O` (stereo not drawn), 160 to 161 °C. For `CSc1nn2c(N)cc(C)nc2c1S(=O)(=O)c1ccc(C(C)(C)C)cc1`, the melting point was above 230 °C. For the compound `CCOC(=O)CC1CCCc2cc(C#N)ccc21` (stereo not drawn), the melting point lay in the range of 45 to 47 °C. `Cc1cnc(C2CCCCC2)n2c1c(CCBr)c1ccccc12`: the melting point fell in the range of 137 to 139 °C. For `CC1=C(C(=O)OC(C)(C)C)C(c2ccc(Br)cc2)C(C(=O)OC(C)(C)C)=C(C)N1`, the melting point fell in the range of 206 to 207 °C. The figure for `Clc1ccc2c(c1)CSCCCN2` is 54 to 55 °C; for `COc1ccc(CN2C(=O)CCC2C(=O)O)cc1` (stereo not drawn) it is 103 to 104 °C.

On to `COc1cc(C=CC(=O)c2ccc(O)c(OC)c2)ccc1O`, for which the melting point fell in the range of 111 to 114 °C.

For the compound `CCOc1nsc(N)c1C#N`, the melting point was 216 to 217 °C. In turn, `O=C1C=CC(=O)C2=C1OCCO2` gave a melting point of 156 °C.

`C#Cc1c(C#N)nn(-c2c(Cl)cc(C(F)(F)F)cc2Cl)c1N(C)C` returned a melting point of 145 to 147 °C. The figure for `CSC(=Nc1ccccc1)Nc1ccccc1` is 105 to 106 °C; for `CCN(CC)c1nc(-c2ccncc2)nc2sc(C#N)c(C)c12` it is 169 to 171 °C.

In turn, `O=C(O)c1c2c(nc3ccc(F)cc13)-c1ccc(-c3ccccc3)cc1CC2` displayed a melting point of 309 to 310 °C.

`N#Cc1cccc(C2=Nc3ccc(C#Cc4ccc(OC(F)(F)F)cc4)cc3NC(=O)C2)c1`: the melting point was 239 to 241 °C. The figure for `CCOC(=O)c1cc2c(C)ccc3c2n1CCC3` is 51 to 52 °C; for `CC(C)(O)CCNC(=O)c1nn(C2CCCCO2)cc1NC(=O)c1ccccn1` (stereo not drawn) it is 138 to 139 °C; for `CN(C)C(=O)Cn1c(-c2ccc(C(F)(F)F)cc2)nc2cccnc21` it is 181 to 183 °C. The figure for `CN1C(=O)CC(c2ccccc2)C1C(O)C#Cc1ccccc1` (stereo not drawn) is 152 to 153 °C; for `O=C1NC(CCc2cc(C(F)(F)F)cc(C(F)(F)F)c2)C(Cc2c[nH]c3ccccc23)N1` (stereo not drawn) it is 194 to 195 °C. `CCN(C=O)C1CCC(CNc2nc3c(s2)CCOc2ccccc2-3)CC1` (stereo not drawn) displayed a melting point of 210 to 213 °C. The figure for `CN1CCN(c2cc(F)cc3c(=O)cc(C(=O)Nc4ccc(N5CCN(C(=O)O)CC5)cc4)oc23)CC1` is 236 to 238 °C; for `CCCCC(=O)N(Cc1ccc2c(c1)CCc1ccccc1N2CC#N)C(C(=O)O)C(C)C` (stereo not drawn) it is 82 °C; for `COc1ccc2c(c1)C13CCN(C)C(C2)C1(OC)CCC(=O)C3` (stereo not drawn) it is 152 to 156 °C. As for `COc1ccc2c(c1)NC(C)(C)C=C2C`, the melting point is 67 to 69 °C. `Fc1ccc(-c2nc3ccc(OC(F)(F)F)cc3[nH]2)cc1` gave a melting point of 158 to 160 °C. As for `Cn1c(=O)c(NS(C)(=O)=O)c(N2CCN(C(=O)c3cccs3)CC2)c2ccccc21`, the figure is 223 °C. `CC(C)C(NC(=O)Cn1cc(Cc2ccc(F)cc2)cc(NC(=O)OCc2ccccc2)c1=O)C(=O)C(F)(F)F` (stereo not drawn) showed a melting point of 66 to 72 °C.

Regarding `CNC(=O)NC1CC(C)(C)Cc2cc(C)cc(C)c21` (stereo not drawn), the melting point lay within 196 to 197 °C.

Consider `CC(C)c1ccc(N2Cc3ccc([N+](=O)[O-])cc3C2=O)cc1`, for which the melting point lay in the range of 225 to 227 °C.

With `Nc1sc2c(c1C(=O)c1ccc(Cl)c3ccccc13)CCC2`, the melting point lay within 258 to 260 °C. As for `CCCCCCCCCCCCCC(=O)c1cc(O)c(C)cc1O`, the figure is 83 °C; as for `CCc1nc2c(C)cc(C)nc2n1Cc1ccc2c(c1)CCc1ccccc1N2Cc1ccccc1C#N`, 133 to 135 °C; as for `CCn1cc(C(=O)O)c(=O)c2c1CCCC2=O`, 212 to 214 °C. The figure for `O=S(=O)(Nc1cccnc1Nc1ccccc1)c1ccccc1Cl` is 140 to 141 °C; for `CC(C)c1ccc(NC(=O)Cn2cnc3[nH]c(=O)[nH]c(=O)c32)cc1` it is 320 to 325 °C; for `CCOCc1nc2c(N)nc(C)c(C)c2n1CCOCC#Cc1cncnc1` it is 122 to 124 °C. The compound `CC(=O)OC1CSC(Oc2ccc(-c3cnccc3F)nc2-c2cnccc2F)C(OC(C)=O)C1OC(C)=O` (stereo not drawn) yielded a melting point of 169 °C.

For the compound `COc1c(OC(C)=O)c(C)c(CCCC(=O)O)c(OC(C)=O)c1OC`, the melting point lay in the range of 125 to 127 °C. Take `CC(C)(C)OC(=O)C1(N)C=CC(C(=O)O)C1` (stereo not drawn): the melting point lay in the range of 126 to 127 °C.

`Cc1nc(C(C)c2ccccc2)c2c(c1O)COC2` (stereo not drawn) registered a melting point of 163 °C. In turn, `COc1c2c(cc3ccncc13)OCO2` came in with a melting point of 144 to 145 °C.

`Cc1nnc(-c2ccc3occ(-c4cccc(F)c4F)c3c2)o1` had a melting point of 112 to 113 °C.

`COC(=O)c1ccc2c(c1)C(=O)C(=Cc1ccc(OC)c(OC)c1OC)O2` gave a melting point of 181 to 183 °C. The figure for `COCc1cnc2c(NC(=O)c3c(Cl)cccc3Cl)cccc2c1Cn1ccnc1` is 190 to 191 °C; for `CCCNC(=O)N(CCC(=O)OC)CC1CC2c3cccc4[nH]cc(c34)CC2N(C)C1` (stereo not drawn) it is 130 to 132 °C; for `CCOC(=O)c1cc(OCc2ccccc2)c2nc(C3CC3)n(C)c2c1` it is 120 °C. As for `Cc1nc(NC(=O)c2cnn3c(C(F)F)cc(-c4ccc(C(F)(F)F)cc4)nc23)sc1S(=O)(=O)NC(C)(CO)CO`, the figure is 248 °C; as for `CCS(=O)(=O)ON=C(C#N)c1ccc(OC)cc1`, 102 °C. The figure for `Cc1ccc(-c2cc(C(F)(F)F)n3cnc(C#N)c3n2)cc1C(F)(F)F` is 220 °C. On to `N#CC(=C1C=CC(=NO[Si](c2ccccc2)(c2ccccc2)c2ccccc2)C=C1)c1ccccc1`, for which the melting point was in the range of 161 to 165 °C.
